According to ChEMBL document CHEMBL1212880, “Discovery of (2,4-dihydroxy-5-isopropylphenyl)-[5-(4-methylpiperazin-1-ylmethyl)-1,3-dihydroisoindol-2-yl]methanone (AT13387), a novel inhibitor of the molecular chaperone Hsp90 by fragment based drug design” (J Med Chem, 2010):
In brackets after ≈: the same amount, converted by molar mass.

What was measured:
[1] = Dissociation constant, pKa of the compound; assay type: physicochemical
Cytochrome P450 2C19 = Cytochrome P450 2C19 (Homo sapiens, UniProt P33261); experiment: Binding affinity to CYP2C19; assay type: ADME
Sequence of Cytochrome P450 2C19 (P33261 whole entry): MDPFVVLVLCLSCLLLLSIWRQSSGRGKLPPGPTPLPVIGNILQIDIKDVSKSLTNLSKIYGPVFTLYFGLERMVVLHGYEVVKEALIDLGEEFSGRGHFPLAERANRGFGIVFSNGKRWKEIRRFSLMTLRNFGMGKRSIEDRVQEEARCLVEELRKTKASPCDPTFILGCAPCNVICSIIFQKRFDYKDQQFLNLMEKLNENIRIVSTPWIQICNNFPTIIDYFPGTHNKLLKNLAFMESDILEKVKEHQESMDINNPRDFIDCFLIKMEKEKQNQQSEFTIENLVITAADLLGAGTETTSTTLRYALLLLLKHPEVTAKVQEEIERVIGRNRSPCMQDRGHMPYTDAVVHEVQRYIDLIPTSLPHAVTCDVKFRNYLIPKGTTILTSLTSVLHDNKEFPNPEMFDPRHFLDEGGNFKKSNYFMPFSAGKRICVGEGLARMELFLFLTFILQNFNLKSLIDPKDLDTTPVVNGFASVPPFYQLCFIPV

Cytochrome P450 2C9 = Cytochrome P450 2C9 (Homo sapiens, UniProt P11712); experiment: Binding affinity to CYP2C9; assay type: ADME
Sequence of Cytochrome P450 2C9 (P11712 whole entry): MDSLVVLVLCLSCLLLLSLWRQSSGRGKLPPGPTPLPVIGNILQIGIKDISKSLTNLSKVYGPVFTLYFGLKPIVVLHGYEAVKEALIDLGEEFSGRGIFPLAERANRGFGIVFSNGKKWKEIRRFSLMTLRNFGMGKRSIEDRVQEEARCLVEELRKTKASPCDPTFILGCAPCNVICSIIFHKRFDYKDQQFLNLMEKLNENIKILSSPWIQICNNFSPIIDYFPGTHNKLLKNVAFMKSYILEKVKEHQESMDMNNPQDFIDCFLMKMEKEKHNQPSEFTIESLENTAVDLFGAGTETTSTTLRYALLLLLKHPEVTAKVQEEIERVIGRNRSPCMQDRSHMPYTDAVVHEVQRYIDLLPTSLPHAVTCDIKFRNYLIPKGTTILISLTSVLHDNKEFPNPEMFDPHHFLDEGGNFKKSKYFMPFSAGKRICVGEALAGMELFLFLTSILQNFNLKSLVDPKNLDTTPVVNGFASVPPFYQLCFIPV

hERG (KCNH2) [2] = molecular target: T1, hERG (KCNH2) (Homo sapiens, UniProt Q12809); experiment: in vitro; conditions: HEK293 cells expressing hERG
T1 sequence (Q12809 whole entry): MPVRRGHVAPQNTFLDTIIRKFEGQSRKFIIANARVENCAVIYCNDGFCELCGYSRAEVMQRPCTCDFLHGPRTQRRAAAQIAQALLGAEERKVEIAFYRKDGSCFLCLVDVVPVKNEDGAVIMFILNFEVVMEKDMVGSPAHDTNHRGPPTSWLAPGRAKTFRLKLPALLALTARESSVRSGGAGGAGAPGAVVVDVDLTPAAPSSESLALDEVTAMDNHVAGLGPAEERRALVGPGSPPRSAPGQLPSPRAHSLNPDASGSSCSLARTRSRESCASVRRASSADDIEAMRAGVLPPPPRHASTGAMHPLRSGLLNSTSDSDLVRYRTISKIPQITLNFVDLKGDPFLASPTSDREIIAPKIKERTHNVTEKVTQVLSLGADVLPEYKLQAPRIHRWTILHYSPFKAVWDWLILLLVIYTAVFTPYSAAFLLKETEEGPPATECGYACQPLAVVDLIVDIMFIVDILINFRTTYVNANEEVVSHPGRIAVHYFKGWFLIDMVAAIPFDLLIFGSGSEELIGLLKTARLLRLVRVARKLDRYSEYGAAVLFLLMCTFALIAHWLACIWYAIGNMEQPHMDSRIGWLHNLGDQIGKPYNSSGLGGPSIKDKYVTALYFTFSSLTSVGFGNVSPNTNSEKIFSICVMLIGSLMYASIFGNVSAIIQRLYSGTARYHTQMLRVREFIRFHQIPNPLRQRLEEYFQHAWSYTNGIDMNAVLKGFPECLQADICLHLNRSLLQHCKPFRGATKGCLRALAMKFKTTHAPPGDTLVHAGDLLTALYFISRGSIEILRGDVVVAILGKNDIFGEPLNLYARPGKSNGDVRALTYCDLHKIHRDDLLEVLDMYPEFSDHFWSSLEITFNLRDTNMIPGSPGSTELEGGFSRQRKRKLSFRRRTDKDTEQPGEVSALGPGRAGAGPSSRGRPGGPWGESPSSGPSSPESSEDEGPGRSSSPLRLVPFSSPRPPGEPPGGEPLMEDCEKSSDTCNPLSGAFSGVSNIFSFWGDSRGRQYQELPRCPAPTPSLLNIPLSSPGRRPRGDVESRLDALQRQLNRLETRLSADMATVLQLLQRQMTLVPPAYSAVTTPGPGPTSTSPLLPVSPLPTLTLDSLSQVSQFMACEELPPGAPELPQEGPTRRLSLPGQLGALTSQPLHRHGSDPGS
Description: Inhibition of human ERG expressed in HEK293 cells at 30 uM by patch clamp assay

hERG (KCNH2) [3] = molecular target: T1, hERG (KCNH2); experiment: in vitro; conditions: HEK293 cells expressing hERG; remark: listed apart in the source
Description: Inhibition of human ERG expressed in HEK293 cells at 3 uM by patch clamp assay

[4] = Thermal stability of the compound at 80 degC after 24 hrs; assay type: physicochemical
[5] = Protein binding in human plasma after 6 hrs by equilibrium dialysis method; assay type: ADME, cell-free; conditions: read-out: PPB (converted)
[6] = Solubility of the compound in phosphate buffer at 15 mg at pH 5.5; assay type: physicochemical
[7] = Solubility of the compound in acetate buffer at 15 mg at pH 5.5; assay type: physicochemical
physchem = conditions: buffer, pH 7.4
[8] = Chemical stability of the compound after 144 hrs; assay type: physicochemical
[9] = Chemical stability of the compound after 48 hrs; assay type: physicochemical
[10] = Solubility of the compound in phosphate buffer at 15 mg at pH 6.5; assay type: physicochemical
[11] = Chemical stability of the compound after 24 hrs; assay type: physicochemical
[12] = Solubility of the compound in lactate buffer at 15 mg at pH 4.2; assay type: physicochemical
CYP3A4 = CYP3A4 (Homo sapiens, UniProt P08684); experiment: Inhibition of CYP3A4 at 10 uM; assay type: ADME
Sequence of CYP3A4 (P08684 whole entry): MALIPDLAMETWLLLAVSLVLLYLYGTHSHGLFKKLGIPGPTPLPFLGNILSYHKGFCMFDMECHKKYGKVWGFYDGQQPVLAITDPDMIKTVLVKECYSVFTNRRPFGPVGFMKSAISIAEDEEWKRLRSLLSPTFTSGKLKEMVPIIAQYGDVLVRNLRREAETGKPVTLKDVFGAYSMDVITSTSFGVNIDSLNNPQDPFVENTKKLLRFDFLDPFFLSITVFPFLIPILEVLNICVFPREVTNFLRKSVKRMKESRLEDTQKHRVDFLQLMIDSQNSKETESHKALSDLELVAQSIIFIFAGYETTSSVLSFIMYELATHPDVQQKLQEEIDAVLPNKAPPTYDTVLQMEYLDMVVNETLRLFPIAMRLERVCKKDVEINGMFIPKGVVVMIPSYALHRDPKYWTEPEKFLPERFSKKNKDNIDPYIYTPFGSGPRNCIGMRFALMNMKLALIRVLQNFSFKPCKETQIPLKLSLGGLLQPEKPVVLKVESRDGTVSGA

HCT-116 [13] = experiment: Cytotoxicity against human HCT116 cells at 100 uM by Alamar blue assay; assay type: functional
HCT-116 [14] = experiment: Cytotoxicity against human HCT116 cells at 30 uM by Alamar blue assay; assay type: functional, cell-based
CYP2C9 = CYP2C9 (Homo sapiens, UniProt P11712); experiment: Inhibition of CYP2C9 at 10 uM; assay type: ADME
Sequence of CYP2C9 (P11712 whole entry): as the sequence (P11712 whole entry) above

CYP2C19 = CYP2C19 (Homo sapiens, UniProt P33261); experiment: Inhibition of CYP2C19 at 10 uM; assay type: ADME
Sequence of CYP2C19 (P33261 whole entry): as the sequence (P33261 whole entry) above

SMILES	pKa [1]	logD (physchem)	inhibition at 30 µM (hERG (KCNH2) [2]) [%]	inhibition at 3 µM (hERG (KCNH2) [3]) [%]	other results
CC(C)c1cc(C(=O)N2Cc3ccc(OCCN)cc3C2)c(O)cc1O			64	11	Activity (Cytochrome P450 2C19): Active; Activity (Cytochrome P450 2C9): Active
CC(C)c1cc(C(=O)N2Cc3ccc(C4(O)CCN(C)CC4)cc3C2)c(O)cc1O	9.4	1.7	34	15	Stability [4]: Unstable; fraction unbound at 6 h [5]: 0.36; solubility [6]: > 30 mg/mL; solubility [7]: > 30 mg/mL; Stability [8]: Stable; Stability [9]: Stable; solubility [10]: 15 mg/mL (≈ 36.5 mM); Stability [11]: Stable; solubility [12]: > 30 mg/mL
CC(C)c1cc(C(=O)N2Cc3ccc(OCCNCC(C)(C)C)cc3C2)c(O)cc1O			92	53	
CC(C)c1cc(C(=O)N2Cc3cccc(OCCN(C)C)c3C2)c(O)cc1O			93	43	inhibition at 10 µM (CYP3A4): < 50%
CC(C)c1cc(C(=O)N2Cc3ccc(OCCCN4CCOCC4)cc3C2)c(O)cc1O	6.9	3.3	95	51	
CC(C)c1c(O)cc(O)c(C(=O)N2Cc3ccccc3C2)c1F					Activity (HCT-116 [13]): 60%; Activity (HCT-116 [14]): Not toxic
CC(C)c1cc(C(=O)N2Cc3cccc(OCCCN4CCOCC4)c3C2)c(O)cc1O	7	3.55	83	23	
CC(C)c1cc(C(=O)N2Cc3ccc(OCCNC4CCCC4)cc3C2)c(O)cc1O			97	60	

Second part, led by results:

pKa [1]	logD (physchem)	SMILES	inhibition at 30 µM (hERG (KCNH2) [2]) [%]	inhibition at 3 µM (hERG (KCNH2) [3]) [%]	other results
4.3		CC(C)c1cc(C(=O)N2Cc3ccc(N4CCOCC4)cc3C2)c(O)cc1O			
8.4	1.6	CC(C)c1cc(C(=O)N2Cc3ccc(N4CCNCC4)cc3C2)c(O)cc1O	70	13	fraction unbound at 6 h [5]: 0.36
9.2	2.1	CC(C)c1cc(C(=O)N2Cc3ccc(CN(C)C)cc3C2)c(O)cc1O	57	5	inhibition at 10 µM (CYP2C9): 50%; fraction unbound at 6 h [5]: 0.36; inhibition at 10 µM (CYP2C19): 50%
